This is an account of results in patent US12606556B2, “TYK-2 inhibitor” (BEIGENE, LTD., priority 2020, dated 2026).

In experiment [1] the test system is JAK1/p-STAT3(Tyr705) activated by IL-6 in TF-1 cell line. Nature of the experiment: IL-6-JAK1/p-STAT3(Tyr705) inhibition cellular assay. In kind it is cell-based. Conditions: Homo sapiens, 0.5 h; TF-1 cells, IL-6 50 ng/ml, 30 min; read-out: Cellular assay pSTAT3/IL-6 IC50. From the text:
Assay D: IL-6-JAK1/p-STAT3(Tyr705) Inhibition IC50 Cellular Assay
To evaluate the inhibition effect of compounds disclosed herein on JAK1/p-STAT3(Tyr705) activated by IL-6 in TF-1 cell line, TF-1 cells were collected and washed 3 times by DPBS and resuspended in RPMI-1640 (phenol red free, Gibco, Cat #11835-030) with 0.1% FBS (Gibco, Cat #10099, Lot #1891605), without GM-CSF(R&D systems,Cat #215-GM-050), starved overnight. Cells were collected and resuspended in 1640 medium (phenol red free, Gibco, Cat #11835-030) with 0.1% BSA, and 12.5 μl/10×10^4/well cell suspension were seeded to the 96-well plate (Corning, Cat #3799). Then cells were treated with compounds diluted in 0.2% DMSO 1640 medium, at 37° C., 1 h. Dilution is done according to the following protocol: (1) make 500× compounds solution in DMSO from 5 mM by 4-fold dilution, total 8 doses were included; (3) make 2× compounds solution in assay medium by transferring 0.5 μl serial 500× stock solution into 125 μl assay medium; (4) 15 μl of 2× solution is added to cells and incubate at 37° C. for 1 h, the final compound conc. is 10000,2500,625,156.25,39,9.8,2.4 and 0.61 nM, respectively. After 1 h, cells were treated with 2.5 μl medium containing IL-6 at 37° C. (R&D systems, Cat #206-IL-010, final conc.50 ng/ml), 30 min. Following cells were lysed with 10 μl lysis buffer at RT, shaking on shaker for 1 h. 16 μL of cell lysate were transferred to a PE 384-well HTRF detection plate, and 4 μL of pre-mixed HTRF antibodies were added to each well. Covered the plate with a plate sealer, span 1000 rpm for 1 min, mix, Incubated overnight at room temperature. Read on BMG PheraStar with HTRF protocol (337 nm-665 nm-620 nm). IC 50 values were calculated by fitting dependent data to the four-parameter logistic model using dotmatics software. The assay was performed by using HTRF Phospho-STAT3(Tyr705) Cellular Assay Kit (Cisbio, Cat #62AT3PEG).

In experiment [2] the target is T1, TYK2-JH2 (aa 575-869, in-house) protein (Homo sapiens, UniProt P29597).
T1 construct: TYK2-JH2 (aa 575-869, in-house) protein; made in house
Nature of the experiment: TYK2-JH2 biochemical assay (HTRF, blocking of TYK2-JH2 protein with its probe). It counts as binding. The conditions noted are these: for IC50: HTRF, 0.2 nM recombinant TYK2-JH2, Probe 1; for Biochemical assay Selectivity fold (TYK2/JAK1): TYK2-JH2 vs JAK1-JH2 biochemical IC50. The procedure: Assay A: TYK2-JH2 Biochemical Assay
Compounds disclosed herein were tested for blocking of TYK2-JH2 (aa 575-869, in-house) protein with its probe in an assay based on Homogeneous Time Resolved Fluorescence.
Compound dilution is done according to the following protocol: (1) Prepare 500× compounds solution in DMSO from 500 uM by 5-fold dilution, total 10 doses were included; (2) Prepare 10× compounds solution in an assay buffer containing 20 mM HEPES, pH 7.5, 10 mM MgCl2, 0.005% BSA, 2 mM DTT, 0.015% Brij-35 by transferring 1 μl serial 500× stock solution into 49 μl assay buffer. 4 μl of 0.2 nM recombinant TYK2-JH2 protein was pre-incubated with 1 μl of 10×serial dilution of compounds at room temperature for 0.5 hour. Then 5 μl of 10 nM in-house Probe 1 (6-((3,5-dimethylphenyl)amino)-8-((4,26-dioxo-30-((3aS,4S,6aR)-2-oxohexahydro-1H-thieno[3,4-d]imidazol-4-yl)-7,10,13,16,19,22-hexaoxa-3,25-diazatriacontyl)amino)imidazo[1,2-b]pyridazine-3-carboxamide, KD=10 nM), 5 μl Mab Anti-6His Tb cryptate Gold (Cat: 61HI2TLB, Cisbio Bioassays) and Streptavidin-XL665(Cat: 610SAXLB, Cisobio Bioassays) mixture were added to plate and further incubated at room temperature for 1 hour. The HTRF signals (ex337 nm, em620 nm/665 nm) were read on BMG PHERAstar FS instrument. The inhibition percentage of TYK2 interaction with its probe in presence of increasing concentrations of compounds was calculated based on the ratio of fluorescence at […]. The IC50 for each compound was derived from fitting the data to the four-parameter logistic equation by Dotmatics.
A general note: Time-resolved FRET reads energy transfer from a long-lived donor to a nearby acceptor.

Experiment [3] concerns JAK2, TYK2/p-STAT4 (Tyr693) activated by IL-12 in NK-92 cell line. Nature of the experiment: IL-12-JAK2, TYK2/p-STAT4 (Tyr693) inhibition cellular assay. It counts as cell-based. The conditions noted are these: for IC50: NK92, 0.5 h, NK-92 cells, IL-12 40 ng/ml, 30 min, read-out: Cellular assay pSTAT4/IL-12 IC50; for Cellular assay Selectivity fold (TYK2/JAK1): pSTAT4/IL-12 vs pSTAT3/IL-6 cellular IC50. An excerpt: Assay C: IL-12-JAK2, TYK2/p-STAT4 (Tyr693) Inhibition IC50 Cellular Assay
To evaluate the inhibition effect of compounds disclosed herein on JAK2, TYK2/p-STAT4 (Tyr693) activated by IL-12 in NK-92 cell line, NK-92 cells were collected and washed 3 times by DPBS and resuspended in MEM-α(GIBCO,Cat #12561056) with 10% FBS (Gibco, Cat #10099, Lot #1891605), without IL-2 (R&D systems,Cat #202-IL), starved overnight. Cells were collected and resuspended in 1640 medium (phenol red free, Gibco, Cat #11835-030) with 0.1% BSA, and 12.5 μl/5×10^4/well cell suspension were seeded to the 96-well plate (Corning, Cat #3799). Then cells were treated with compounds diluted in 0.2% DMSO 1640 medium, at 37° C., 1 h. Dilution is done according to the following protocol: (1) make 500× compounds solution in DMSO from 5 mM by 4-fold dilution, total 8 doses were included; (3) make 2× compounds solution in assay medium by transferring 0.5 μl serial 500× stock solution into 125 μl assay medium; (4) 15 μl of 2× serial solution is added to cells and incubate at 37° C. for 1 h, the final compound conc. is 10000,2500,625,156.25,39,9.8,2.4 and 0.61 nM, respectively. After 1 h, cells were treated with 2.5 μl medium containing IL-12 at 37° C. (R&D systems, Cat #219-IL-005, final conc.40 ng/ml), 30 min. Following cells were lysed with 7.5 μl lysis buffer at RT, shaking on shaker for 1 h. 10 μL of cell lysate were transferred to a PE 384-well Proxiplate detection plate, and 5 μL of pre-mixed Alphascreen beads were added to each well. Covered the plate with a plate sealer, span 1000 rpm for 1 min, mix, Incubated overnight at room temperature. Read on BMG PheraStar with Alphascreen protocol. IC 50 values were calculated by fitting dependent data to the four-parameter logistic model using dotmatics software. The assay was performed by using AlphaLISA SureFire Ultra p-STAT4 (Tyr693) Assay Kit—High Volume (PE, Cat #ALSU-PST4-A-HV).

Experiment [4] addresses T2, JAK1-JH2 protein (aa 561-860, in-house) (Homo sapiens, UniProt P23458).
T2 construct: JAK1-JH2 protein (aa 561-860, in-house); made in house
Nature of the experiment: JAK1-JH2 biochemical assay (HTRF, blocking of JAK1-JH2 protein with its probe). It counts as binding. Conditions: 1.17 nM recombinant JAK1-JH2, Probe 2. As to the method: Assay B: JAK1-JH2 Biochemical Assay
Compounds disclosed herein were tested for blocking of JAK1-JH2 protein (aa 561-860, in-house) with its probe in an assay based on Homogeneous Time Resolved Fluorescence. Compound dilution is done according to the following protocol: (1) Prepare 500× compounds solution in DMSO from 500 uM by 5-fold dilution, total 10 doses were included; (2) Prepare 10× compounds solution in an assay buffer containing 20 mM HEPES, pH 7.5, 10 mM MgCl2, 0.005% BSA, 2 mM DTT, 0.015% Brij-35 by transferring 1 μl serial 500× stock solution into 49 μl assay buffer. 4 μL of 1.17 nM recombinant JAK1-JH2 protein was pre-incubated with 1 μl of 10×serial dilution of compounds at room temperature for 0.5 hour. […] The HTRF signals (ex337 nm, em620 nm/665 nm) were read on BMG PHERAstar FS instrument. The inhibition percentage of JAK1 interaction with its probe in presence of increasing concentrations of compounds was calculated based on the ratio of fluorescence at 615 nm to that at 665 nm. The IC50 for each compound was derived from fitting the data to the four-parameter logistic equation by Dotmatics.

T1 sequence (P29597 575-869): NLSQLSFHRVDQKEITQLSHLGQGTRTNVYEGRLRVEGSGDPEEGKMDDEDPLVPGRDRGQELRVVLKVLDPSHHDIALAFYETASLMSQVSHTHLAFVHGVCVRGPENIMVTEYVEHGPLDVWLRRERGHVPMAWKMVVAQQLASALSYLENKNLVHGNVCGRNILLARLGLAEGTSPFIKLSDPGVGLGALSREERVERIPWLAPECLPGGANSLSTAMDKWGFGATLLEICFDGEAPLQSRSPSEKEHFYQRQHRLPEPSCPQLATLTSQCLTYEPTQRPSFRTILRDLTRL
T2 sequence (P23458 561-860): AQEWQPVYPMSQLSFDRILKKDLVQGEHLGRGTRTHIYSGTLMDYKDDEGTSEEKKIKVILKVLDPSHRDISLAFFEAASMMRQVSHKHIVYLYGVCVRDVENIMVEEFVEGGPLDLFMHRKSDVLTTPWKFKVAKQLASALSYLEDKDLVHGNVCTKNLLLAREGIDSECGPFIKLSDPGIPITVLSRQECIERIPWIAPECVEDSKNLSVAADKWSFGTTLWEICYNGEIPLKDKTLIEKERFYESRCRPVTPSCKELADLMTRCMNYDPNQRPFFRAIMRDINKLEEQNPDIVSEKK

On to `CNC(=O)c1nnc(NC(=O)C2CC2)cc1Nc1nc2ccc(OC3CN(S(C)(=O)=O)C3)cn2n1` [Example C3, 6-(cyclopropanecarboxamido)-N-methyl-4-((6-((1-(methylsulfonyl)azetidin-3-yl)oxy)-[1,2,4]triazolo[1,5-a]pyridin-2-yl)amino)pyridazine-3-carboxamide], for which the IC50 in experiment [1] is > 10000 nM; in experiment [2] it was 0.08 nM; in experiment [3] it was 68.8 nM; in experiment [4], 1.2 nM. In experiment [2], the “Biochemical assay Selectivity fold (TYK2/JAK1)” value is 15 fold. In addition, the “Cellular assay Selectivity fold (TYK2/JAK1)” value in experiment [3] is >145 fold.
As for `CNC(=O)c1nnc(NC(=O)C2CC2)cc1Nc1nc2ccc(OC3CN(C(C)=O)C3)cn2n1` [Example C4, 4-((6-((1-acetylazetidin-3-yl)oxy)-[1,2,4]triazolo [1,5-a]pyridin-2-yl)amino)-6-(cyclopro-panecarbox-amido)-N-methyl-pyridazine-3-carboxamide], the IC50 is > 10000 nM in experiment [1], 0.08 nM in experiment [2], 309 nM in experiment [3] and 1.2 nM in experiment [4]. In experiment [2], the “Biochemical assay Selectivity fold (TYK2/JAK1)” value is recorded as 15 fold. In addition, the “Cellular assay Selectivity fold (TYK2/JAK1)” value in experiment [3] is on record as >32 fold.
For the compound `CNC(=O)c1nnc(NC(=O)C2CC2)cc1Nc1nc2ccc(OC3CN(C(=O)CC#N)C3)cn2n1` [Example C5, 4-((6-((1-(2-cyanoacetyl)azetidin-3-yl)oxy)-[1,2,4]triazolo[1,5-a]pyridin-2-yl)amino)-6-(cyclopro-panecarbox-amido)-N-methyl-pyridazine-3-carboxamide], the IC50 in experiment [1] is > 10000 nM; in experiment [2], 0.143 nM; in experiment [3], 1320 nM; in experiment [4], 1.56 nM. The “Biochemical assay Selectivity fold (TYK2/JAK1)” value in experiment [2] is given as 11 fold. For the same compound, in experiment [3], the “Cellular assay Selectivity fold (TYK2/JAK1)” value is >8 fold.
`CNC(=O)c1nnc(NC(=O)C2CC2)cc1Nc1nc2ccc(OC3CN(C4CCOC4)C3)cn2n1` (stereo not drawn) [Example D1, 6-(cyclopropanecarboxamido)-N-methyl-4-((6-((1-(tetrahydrofuran-3-yl)azetidin-3-yl)oxy)-[1,2,4]triazolo[1,5-a]pyridin-2-yl)amino)pyridazine-3-carboxamide]: the IC50 in experiment [1] was > 10000 nM; in experiment [2], 0.099 nM; in experiment [3] it was 68.4 nM; in experiment [4], 1.21 nM. For the same compound, in experiment [2], the “Biochemical assay Selectivity fold (TYK2/JAK1)” value was determined as 12 fold. In addition, the “Cellular assay Selectivity fold (TYK2/JAK1)” value in experiment [3] was >146 fold.
As to `CNC(=O)c1nnc(NC(=O)C2CC2)cc1Nc1nc2ccc(N3CCC3)cn2n1` [Example E1, 4-((6-(azetidin-1-yl)-[1,2,4]triazolo[1,5-a]pyridin-2-yl)amino)-6-(cyclopropanecarboxamido)-N-methylpyridazine-3-carboxamide], the IC50 in experiment [1] was 6330 nM; in experiment [2], 0.047 nM; in experiment [3], 13.3 nM; in experiment [4] it was 1.6 nM. In addition, in experiment [2], the “Biochemical assay Selectivity fold (TYK2/JAK1)” value came to 34 fold. Besides, in experiment [3], the “Cellular assay Selectivity fold (TYK2/JAK1)” value was 475 fold.
On to `CNC(=O)c1nnc(NC(=O)C2CC2)cc1Nc1nc2ccc(N3CC(OC)C3)cn2n1` [Example E2, 6-(cyclopropanecarboxamido)-4-((6-(3-methoxyazetidin-1-yl)-[1,2,4]triazolo[1,5-a]pyridin-2-yl)amino)-N-methylpyridazine-3-carboxamide], for which the IC50 in experiment [1] was determined as 9800 nM; in experiment [2], 0.047 nM; in experiment [3], 9.01 nM; in experiment [4], 1.2 nM. Also, in experiment [2], the “Biochemical assay Selectivity fold (TYK2/JAK1)” value is 26 fold. The “Cellular assay Selectivity fold (TYK2/JAK1)” value in experiment [3] stood at 1087 fold.
On to `[2H]C([2H])([2H])NC(=O)c1nnc(NC(=O)C2CC2)cc1Nc1nc2ccc(N3CCC3)cn2n1` [Example E3, 4-((6-(azetidin-1-yl)-[1,2,4]triazolo [1,5-a]pyridin-2-yl)amino)-6-(cyclopropanecarbox-amido)-N-(methyl-d3) pyridazine-3-carboxamide], for which the IC50 in experiment [1] turned out to be 4060 nM; in experiment [2], 0.038 nM; in experiment [3], 8.9 nM; in experiment [4], 1.3 nM. In addition, the “Biochemical assay Selectivity fold (TYK2/JAK1)” value in experiment [2] is 34 fold. Moreover, the “Cellular assay Selectivity fold (TYK2/JAK1)” value in experiment [3] turned out to be 453 fold.
